The source of these data is patent US11214557B2, “MAGL inhibitors” (H. Lundbeck A/S, priority 2018, dated 2022).

SMILES strings stand for the structures.

Assay [1] addresses MAGL (Homo sapiens (Human), UniProt Q99685). Put plainly: In vitro competitive activity-based protein profiling (human proteomes). Conditions: human proteome; for inhibition at 1 µM: 1 μM inhibitor, read-out: MAGL % inh. 1 μM (human). Type of assay: biochemical. How it is done: In Vitro Competitive Activity-Based Protein Profiling
Proteomes (mouse brain membrane fraction or cell lysates for mouse assays; human prefrontal cortex or cell membrane fractions for human assays) (50 μL, 1.0 mg/mL total protein concentration) were preincubated with varying concentrations of inhibitors at 37° C. After 30 min, FP—Rh or HT-01 (1.0 μL, 50 μM in DMSO) was added and the mixture was incubated for another 30 min at 37° C. Reactions were quenched with SDS loading buffer (15 μL—4×) and run on SDS-PAGE.

Assay [2] deals with MAGL (Mus musculus (Mouse), UniProt O35678). As to the kind of experiment: Mouse brain proteomes from inhibitor treated mice (oral gavage, ABPP analysis). It is filed as in vivo. The conditions noted are these: 5 mg/kg oral gavage, 4 h after administration, read-out: MAGL % inh. 5 mg/kg (mouse). As to the method:
Preparation of Mouse Brain Proteomes from Inhibitor Treated Mice
Inhibitors were administered to wild-type C57Bl/6J by oral gavage in a vehicle of polyethylene glycol.

Chain of MAGL (Homo sapiens (Human), UniProt Q99685) (Q99685 whole entry): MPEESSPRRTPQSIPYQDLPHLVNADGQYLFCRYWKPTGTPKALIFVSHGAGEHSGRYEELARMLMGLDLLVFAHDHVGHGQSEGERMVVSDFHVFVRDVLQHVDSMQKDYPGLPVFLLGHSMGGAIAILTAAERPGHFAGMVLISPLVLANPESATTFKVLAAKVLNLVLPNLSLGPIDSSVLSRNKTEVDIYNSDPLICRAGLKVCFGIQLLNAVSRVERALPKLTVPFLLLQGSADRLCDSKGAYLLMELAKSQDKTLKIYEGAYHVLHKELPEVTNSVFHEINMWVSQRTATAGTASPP
Chain of MAGL (Mus musculus (Mouse), UniProt O35678) (O35678 whole entry): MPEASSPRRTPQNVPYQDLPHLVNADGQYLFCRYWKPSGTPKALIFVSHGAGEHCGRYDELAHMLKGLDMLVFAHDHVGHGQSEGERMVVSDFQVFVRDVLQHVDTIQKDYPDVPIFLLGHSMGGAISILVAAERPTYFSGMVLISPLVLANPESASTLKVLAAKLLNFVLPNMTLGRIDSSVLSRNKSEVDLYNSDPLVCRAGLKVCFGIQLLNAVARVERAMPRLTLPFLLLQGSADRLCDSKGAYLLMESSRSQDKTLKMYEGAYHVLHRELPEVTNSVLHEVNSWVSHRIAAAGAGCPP

On to `CC(C)(Oc1cc(Cl)ccc1CN1CCN(C(=O)OC(C(F)(F)F)C(F)(F)F)CC1)C(=O)O` [Example 1, 2-(5-Chloro-2-((4-(((1,1,1,3,3,3-hexafluoropropan-2-yl)oxy)carbonyl)piperazin-1-yl)methyl)phenoxy)-2-methylpropanoic acid], for which, at MAGL [1], the inhibition at 1 µM is over 75% and the IC50 was under 50 nM. Besides, at MAGL [2], the inhibition at 5 mg/kg lay within 0 to 25%. In the same order, the values of `CC(C)(Oc1c(CN2CCN(C(=O)OC(C(F)(F)F)C(F)(F)F)CC2)cccc1C(F)(F)F)C(=O)O` [Example 2, 2-(2-((4-(((1,1,1,3,3,3-Hexafluoropropan-2-yl)oxy)carbonyl)piperazin-1-yl)methyl)-6-(trifluoromethyl)phenoxy)-2-methylpropanoic acid] are over 75%, under 50 nM and over 75%. Turning to `CC(C)(Oc1cc(C(F)(F)F)ccc1CN1CCN(C(=O)OC(C(F)(F)F)C(F)(F)F)CC1)C(=O)O` [Example 3, 2-(2-((4-(((1,1,1,3,3,3-Hexafluoropropan-2-yl)oxy)carbonyl)piperazin-1-yl)methyl)-5-(trifluoromethyl)phenoxy)-2-methylpropanoic acid], on MAGL [1], the inhibition at 1 µM is over 75% and the IC50 is under 50 nM. The inhibition at 5 mg/kg at MAGL [2] is over 75%. As to `CC(C)(COc1cc(C(F)(F)F)ccc1CN1CCN(C(=O)OC(C(F)(F)F)C(F)(F)F)CC1)C(=O)O` [Example 4, 3-(2-((4-(((1,1,1,3,3,3-Hexafluoropropan-2-yl)oxy)carbonyl)piperazin-1-yl)methyl)-5-(trifluoromethyl)phenoxy)-22-dimethylpropanoic acid], on MAGL [1], the inhibition at 1 µM was over 75% and the 50% inhibitory concentration (IC50) was under 50 nM. Moreover, the inhibition at 5 mg/kg on MAGL [2] was over 75%.

For the compound `CC(C)(COc1cc(CN2CCN(C(=O)OC(C(F)(F)F)C(F)(F)F)CC2)cc(C(F)(F)F)c1)C(=O)O` [Example 5, 3-(3-((4-(((1,1,1,3,3,3-Hexafluoropropan-2-yl)oxy)carbonyl)piperazin-1-yl)methyl)-5-(trifluoromethyl)phenoxy)-2,2-dimethylpropanoic acid], on MAGL [1], the inhibition at 1 µM was over 75% and the IC50 was under 50 nM. Further, the inhibition at 5 mg/kg at MAGL [2] is over 75%. With `CC(C)(Oc1cc(C(F)(F)F)ccc1CN1CCN(C(=O)OC(C(F)(F)F)C(F)(F)F)CC1)C(=O)NS(=O)(=O)C1CC1` [Example 6, 1,1,1,3,3,3-Hexafluoropropan-2-yl 4-(2-((1-(cyclopropanesulfonamido)-2-methyl-1-oxopropan-2-yl)oxy)-4-(trifluoromethyl)benzyl)piperazine-1-carboxylate], on MAGL [1], the inhibition at 1 µM is over 75% and the IC50 was under 50 nM. Moreover, the inhibition at 5 mg/kg on MAGL [2] fell in the range of 0 to 25%. For `O=C(O)COc1c(F)cccc1CN1CCN(C(=O)OC(C(F)(F)F)C(F)(F)F)CC1` [Example 11, 2-(2-Fluoro-6-((4-(((1,1,1,3,3,3-hexafluoropropan-2-yl)oxy)carbonyl)piperazin-1-yl)methyl)phenoxy)acetic acid], the inhibition at 1 µM at MAGL [1] lay within 50 to 75%. On the same count and under the same terms, with `CCOC(=O)OC(C)OC(=O)C(C)(C)Oc1cc(C(F)(F)F)ccc1CN1CCN(C(=O)OC(C(F)(F)F)C(F)(F)F)CC1` (stereo not drawn) [Example 12, 1,1,1,3,3,3-Hexafluoropropan-2-yl 4-(2-((1-(1-((ethoxycarbonyl)oxy)ethoxy)-2-methyl-1-oxopropan-2-yl)oxy)-4-(trifluoromethyl)benzyl)piperazine-1-carboxylate] the figure was over 75%; with `CC(OC(=O)C(C)C)OC(=O)C(C)(C)Oc1cc(C(F)(F)F)ccc1CN1CCN(C(=O)OC(C(F)(F)F)C(F)(F)F)CC1` (stereo not drawn) [Example 13, 1,1,1,3,3,3-Hexafluoropropan-2-yl 4-(2-((1-(1-(isobutyryloxy)ethoxy)-2-methyl-1-oxopropan-2-yl)oxy)-4-(trifluoromethyl)benzyl)piperazine-1-carboxylate], over 75%. In the case of `Cc1ccc(CN2CCN(C(=O)OC(C(F)(F)F)C(F)(F)F)CC2)c(OC(C)(C)C(=O)O)c1Cl` [Example 17, 2-(2-Chloro-6-((4-(((1,1,1,3,3,3-hexafluoropropan-2-yl)oxy)carbonyl)piperazin-1-yl)methyl)-3-methylphenoxy)-2-methylpropanoic acid], on MAGL [1], the inhibition at 1 µM is over 75% and the 50% inhibitory concentration (IC50) is under 50 nM. For the same compound, on MAGL [2], the inhibition at 5 mg/kg lay within 50 to 75%. As for `CC(C)(Oc1cc(C#N)ccc1CN1CCN(C(=O)OC(C(F)(F)F)C(F)(F)F)CC1)C(=O)O` [Example 26, 2-(5-Cyano-2-((4-(((1,1,1,3,3,3-hexafluoropropan-2-yl)oxy)carbonyl)piperazin-1-yl)methyl)phenoxy)-2-methylpropanoic acid], at MAGL [1], the inhibition at 1 µM is over 75% and the IC50 was under 50 nM. As for `COc1ccc(OC(C)(C)C(=O)O)cc1CN1CCN(C(=O)OC(C(F)(F)F)C(F)(F)F)CC1` [Example 35, 2-(3-((4-(((1,1,1,3,3,3-Hexafluoropropan-2-yl)oxy)carbonyl)piperazin-1-yl)methyl)-4-methoxyphenoxy)-2-methylpropanoic acid], the inhibition at 10 µM at MAGL [1] (10 μM inhibitor, read-out: MAGL % inh. (human) @ 10 μM) was over 75%.

As to `O=C(O)COc1cc(CN2CCN(C(=O)OC(C(F)(F)F)C(F)(F)F)CC2)cc(OC(F)(F)F)c1` [Example 44, 2-(3-((4-(((1,1,1,3,3,3-Hexafluoropropan-2-yl)oxy)carbonyl)piperazin-1-yl)methyl)-5-(trifluoromethoxy)phenoxy) acetic acid], at MAGL [1], the inhibition at 1 µM is over 75% and the 50% inhibitory concentration (IC50) is under 50 nM. On to `C[C@@H](Oc1cc(C#N)ccc1CN1CCN(C(=O)OC(C(F)(F)F)C(F)(F)F)CC1)C(=O)O` [Example 45, (R)-2-(5-Cyano-2-((4-(((1,1,1,3,3,3-hexafluoropropan-2-yl)oxy)carbonyl)piperazin-1-yl)methyl)phenoxy) propanoic acid], for which the inhibition at 1 µM on MAGL [1] was over 75%. On the same count and under the same terms, the value for `C[C@H](Oc1cc(C#N)ccc1CN1CCN(C(=O)OC(C(F)(F)F)C(F)(F)F)CC1)C(=O)O` [Example 46, (S)-2-(5-Cyano-2-((4-(((1,1,1,3,3,3-hexafluoropropan-2-yl)oxy)carbonyl)piperazin-1-yl)methyl)phenoxy) propanoic acid] was over 75%.

Consider `CC(C)(Oc1cc(CN2CCN(C(=O)OC(C(F)(F)F)C(F)(F)F)CC2)cc(C(F)(F)F)c1)C(=O)O` [Example 47, 2-(3-((4-(((1,1,1,3,3,3-Hexafluoropropan-2-yl)oxy)carbonyl)piperazin-1-yl)methyl)-5-(trifluoromethyl)phenoxy)-2-methylpropanoic acid], for which, on MAGL [1], the inhibition at 1 µM is over 75% and the IC50 is under 50 nM. On to `Cc1ccc(CN2CCN(C(=O)OC(C(F)(F)F)C(F)(F)F)CC2)c(OCC(C)(C)C(=O)O)c1F` [Example 48, 3-(2-Fluoro-6-((4-(((1,1,1,3,3,3-hexafluoropropan-2-yl)oxy)carbonyl)piperazin-1-yl)methyl)-3-methylphenoxy)-2,2-dimethylpropanoic acid], for which, at MAGL [1], the inhibition at 1 µM was over 75% and the IC50 is under 50 nM. Further, the inhibition at 5 mg/kg at MAGL [2] was over 75%. Take `CC(C)(C)C(=O)OCOC(=O)C(C)(C)Oc1cc(C(F)(F)F)ccc1CN1CCN(C(=O)OC(C(F)(F)F)C(F)(F)F)CC1` [Example 49, 1,1,1,3,3,3-Hexafluoropropan-2-yl 4-(2-((2-methyl-1-oxo-1-((pivaloyloxy)methoxy)propan-2-yl)oxy)-4-(trifluoromethyl)benzyl) piperazine-1-carboxylate]: the inhibition at 1 µM at MAGL [1] was over 75%. Same read-out and setting: the value for `CCOC(=O)C(C)(C)Oc1cc(C(F)(F)F)ccc1CN1CCN(C(=O)OC(C(F)(F)F)C(F)(F)F)CC1` [Example 50, 1,1,1,3,3,3-Hexafluoropropan-2-yl 4-(2-((1-ethoxy-2-methyl-1-oxopropan-2-yl)oxy)-4-(trifluoromethyl)benzyl) piperazine-1-carboxylate] was over 75%; that for `CC(C)OC(=O)OC(C)OC(=O)C(C)(C)Oc1cc(C(F)(F)F)ccc1CN1CCN(C(=O)OC(C(F)(F)F)C(F)(F)F)CC1` (stereo not drawn) [Example 51, 1,1,1,3,3,3-Hexafluoropropan-2-yl 4-(2-((1-(1-((isopropoxycarbonyl)oxy)ethoxy)-2-methyl-1-oxopropan-2-yl)oxy)-4-(trifluoromethyl)benzyl) piperazine-1-carboxylate] was over 75%.
